From article PMC6600574 (Molecules, 2019)

Assays:
[1] = DPPH radical scavenging assay; assay type: biochemical; conditions: DPPH in ethanol, 30 min
Experimental: Ascorbic acid was serially diluted to a concentration range of 0.78–100 µg/mL. Ethanol (10%) was used as a blank. Ninety microliters of a […] DPPH (2,2-diphenyl-1-picrylhydrazyl) in ethanol were added to each well. The plates were incubated for 30 min and covered in a layer of foil. Color controls (negative controls) were prepared in the exact same manner as above, but distilled water was added to each well instead of DPPH. The absorbances were measured at a wavelength of 515 nm using a BIO-TEK Power-Wave XS multiplate reader (BIO-TEK Instruments, Winooski, VT, USA). From the absorbances an IC50 value was determined.

[2] = Nitric oxide scavenging assay (nitroprusside, Griess reagent); assay type: biochemical; conditions: 10 mM nitroprusside, 90 min, read-out: NO IC50
Experimental: Ethanol (10%) was used as a blank. Nitroprusside (50 μL) at a concentration of 10 mM was added to all the wells. The plates were incubated for 90 min at room temperature. After incubation, Griess reagent (100 μL) was added to all the wells, except for the color controls (negative controls) where instead distilled water was added. The absorbances were read at a wavelength of 546 nm using a BIO-TEK Power-Wave XS multiplate reader. From the absorbances an IC50 value was determined.

- IC50 [1]: 43.7 ± 1.12 µM
- IC50 [2]: 144 ± 3.3 µM
SMILES: O=C1O[C@H]([C@@H](O)CO)C(O)=C1O [Ascorbic acid, reference compound]
